Assays:
LCK tyrosine kinase = target: T1, LCK tyrosine kinase (Homo sapiens, UniProt P06239, C224D/P223M); experiment: Inhibition of phosphorylated LCK tyrosine kinase activity; format: biochemical; conditions: read-out: LCK % Inhib. at 1 μM
T1 construct: starting from amino acid 223 to the end of the protein at amino acid 509; made in house; host or cells: insect cells
Description: Inhibition of Phosphorylated FGF Receptor and LCK Tyrosine Kinase Activity
Cloning, expression and purification of the cytosolic domain of FGFR1 tyrosine kinase (amino acids 456–766) containing three amino acid substitutions (L457V, C488A, and C584S) were conducted as previously described (Mohammadi, M., Schlessinger, J., & Hubbard, S. R. (1996) Cell 86, 577–587). This domain was expressed in Sf9 insect cells using a baculovirus expression vector, and protein was purified using conventional techniques. The LCK tyrosine kinase was expressed in insect cells as an N-terminal deletion starting from amino acid 223 to the end of the protein at amino acid 509. The N-terminus of the protein also had two amino acid substitutions, P223M and C 224D. Kinases were purified using conventional chromatographic methods.
Tyrosine kinase activity was measured using a coupled, continuous spectrophotometric assay, in which production of phosphorylated poly(Glu, Tyr; 4:1) substrate and ADP is coupled to the pyruvate kinase-catalyzed transfer of a phosphate from phosphoenolpyruvate to ADP, with generation of pyruvate and regeneration of ATP. Pyruvate production is in turn coupled to the lactate dehydrogenase-catalyzed reduction of pyruvate to form lactate, with concomitant conversion of NADH to NAD+. Loss of NADH is monitored by measuring absorbance at 340 nm (see e.g., Technikova-Dobrova et al., “Spectrophotometric determination of functional characteristics of protein kinases with coupled enzymatic assay,” FEBS Letters, vol. 292 (1991), pp. 69–72). Enzyme activity was measured in the presence of 200 mM HEPES (pH 7.5), 2 mM phosphoenolpyruvate, 0.3 mM NADH, 20 mM MgCl2, 100 μM ATP, 5 mM DTT, 5.1 or 25 mM poly (Glu,Tyr) 4:1 for P-FGF or P-LCK assays, respectively, and 15 units/mL each of pyruvate kinase and lactate dehydrogenase. Phosphorylated FGF receptor kinase was present at 100 nM and phosphorylated LCK kinase was present at 50 nM. Assays were performed under initial rate conditions at 37° C., and rates were corrected for any background rate measured in the absence of enzyme. Percent inhibition was calculated relative to control enzyme assayed in the presence of 2% (v/v) DMSO.

HCT 116 cell line = experiment: Inhibition of Cell Growth (MTT tetrazolium salt assay); format: cell-based; conditions: Homo sapiens, HCT 116, MTT; for IC50: 50% inhibition of growth, read-out: HCT 116 IC50; for IC90: read-out: HCT 116 IC90
How it was run: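 HCT 116 cells in McCoy's 5A were dosed 4 h after plating, in 0.5% (v/v) DMSO, then held 4–6 days at 37 °C, 5% CO2. MTT at 0.2 mg/mL final for 4 h; DMSO-solubilized formazan read at 540 nm. IC50 taken from the linear part of a semi-log plot versus DMSO-only controls.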

VEGF-R2 = target: T2, VEGF-R2 (Homo sapiens, UniProt P35968, DEL940-989/E990V); experiment: VEGF-R2 Assay (coupled spectrophotometric FLVK-P / ELISA); format: biochemical; conditions: read-out: VEGF % Inhib. at 1 μM
T2 construct: VEGF-R2Δ50 contains residues 806–939 and 990–1171; made in house; host or cells: baculovirus/insect cells
T2 sequence (P35968 with tags, fused parts or gaps DEL940-989/E990V limits assumed): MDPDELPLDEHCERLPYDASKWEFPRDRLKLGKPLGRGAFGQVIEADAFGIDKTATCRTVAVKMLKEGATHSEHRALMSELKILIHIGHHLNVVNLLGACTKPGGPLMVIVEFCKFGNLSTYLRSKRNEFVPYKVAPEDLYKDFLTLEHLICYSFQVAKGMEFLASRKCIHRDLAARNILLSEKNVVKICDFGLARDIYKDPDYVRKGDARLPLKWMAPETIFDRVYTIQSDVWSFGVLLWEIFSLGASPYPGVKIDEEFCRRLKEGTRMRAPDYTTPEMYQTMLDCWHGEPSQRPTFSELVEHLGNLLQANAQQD
Source text: VEGF-R2 Construct for Assay
This construct determines the ability of a test compound to inhibit tyrosine kinase activity. A construct (VEGF-R2Δ50) of the cytosolic domain of human vascular endothelial growth factor receptor 2 (VEGF-R2) lacking the 50 central residues of the 68 residues of the kinase insert domain was expressed in a baculovirus/insect cell system. Of the 1356 residues of full-length VEGF-R2, VEGF-R2Δ50 contains residues 806–939 and 990–1171, and also one point mutation (E990V) within the kinase insert domain relative to wild-type VEGF-R2. […] See Parast et al., Biochemistry, 37,16788–16801 (1998).
Coupled Spectrophotometric (FLVK-P) Assay
The production of ADP from ATP that accompanies phosphoryl transfer was coupled to oxidation of NADH using phosphoenolpyruvate (PEP) and a system having pyruvate kinase (PK) and lactic dehydrogenase (LDH). The oxidation of NADH was monitored by following the decrease of absorbance at 340 nm (e340=6.22 cm^1 mM^−1) using a Beckman DU 650 spectrophotometer. Assay conditions for phosphorylated VEGF-R2A50 (indicated as FLVK-P in the tables below) were the following: 1 mM PEP; 250 μM NADH; 50 units of LDH/mL; 20 units of PK/mL; 5 mM DTT; 5.1 mM poly(E4Y1); 1 mM ATP; and 25 mM MgCl2 in 200 mM Hepes, pH 7.5. Assay conditions for unphosphorylated VEGF-R2A50 (indicated as FLVK in the tables) were the following: 1 mM PEP; 250 μM NADH; 50 units of LDH/mL; 20 units of PK/mL; 5 mM DTT; 20 mM poly(E4Y1); 3 mM ATP; and 60 mM MgCl2 and 2 mM MnCl2 in 200 mM Hepes, pH 7.5. Assays were initiated with 5 to 40 nM of enzyme. Ki values were determined by measuring enzyme activity in the presence of varying concentrations of test compounds. The data were analyzed using Enzyme Kinetic and Kaleidagraph software.
Formation of phosphogastrin was monitored using biotinylated gastrin peptide (1–17) as substrate. Biotinylated phosphogastrin was immobilized using streptavidin coated 96-well microtiter plates followed by detection using anti-phosphotyrosine-antibody conjugated to horseradish peroxidase. The activity of horseradish peroxidase was monitored using 2,2′-azino-di-[3-ethylbenzathiazoline sulfonate(6)] diammonium salt (ABTS). Typical assay solutions contained: 2 μM biotinylated gastrin peptide; 5 mM DTT; 20 μM ATP; 26 mM MgCl2; and 2 mM MnCl2 in 200 mM Hepes, pH 7.5. The assay was initiated with 0.8 nM of phosphorylated VEGF-R2Δ50. Horseradish peroxidase activity was assayed using ABTS, 10 mM. The horseradish peroxidase reaction was quenched by addition of acid (H2SO4), followed by absorbance reading at 405 nm. Ki values were determined by measuring enzyme activity in the presence of varying concentrations of test compounds. The data were analyzed using Enzyme Kinetic and Kaleidagraph software.

T1 sequence (P06239 223-509 P223M/C224D): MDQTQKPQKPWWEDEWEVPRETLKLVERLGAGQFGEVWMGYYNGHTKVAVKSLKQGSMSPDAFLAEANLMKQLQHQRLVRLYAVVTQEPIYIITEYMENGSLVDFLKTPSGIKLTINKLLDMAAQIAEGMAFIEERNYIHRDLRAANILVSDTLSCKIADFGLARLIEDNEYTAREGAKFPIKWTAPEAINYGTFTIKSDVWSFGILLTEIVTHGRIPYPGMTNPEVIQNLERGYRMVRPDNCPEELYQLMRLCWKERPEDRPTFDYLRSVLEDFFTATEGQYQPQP

Structure (SMILES)	inhibition at 1 µM (LCK tyrosine kinase) [%]	IC50 (HCT 116 cell line) [nM]	IC90 (HCT 116 cell line) [µM]	inhibition at 1 µM (VEGF-R2) [%]
Cc1c(O)cccc1-c1ccc2[nH]nc(-c3nc4ccccc4[nH]3)c2c1 [10′, 3-[3-(1H-Benzoimidazol-2-yl)-1H-indazol-5-yl]-2-methyl-phenol]	21	1500	3.8	–
Cc1c(O)cccc1-c1ccc2[nH]nc(/C=C/c3ccccc3)c2c1 [15′, 2-Methyl-3-[3-((E)-styryl)-1H-indazol-5-yl]-phenol]	17	1200	2.5	–
Fc1ccccc1-c1ccc2[nH]nc(-c3nc4ccccc4[nH]3)c2c1 [Example 6, 3-(1H-Benzoimidazol-2-yl)-5-(2-fluorophenyl)-1H-Indazole]	11	6000	21	64

Source: patent US7232912B2, “Indazole compounds, pharmaceutical compositions, and methods for mediating or inhibiting cell proliferation” (Agouron Pharmaceuticals, Inc., priority 2000, dated 2007)
